Assay results: patent US11617745B2, “Compositions and methods for generating hair cells by downregulating FOXO” (Frequency Therapeutics, Inc., priority 2018, dated 2023)
Entries after “also recorded” stand apart in the source; their conditions may differ.

Test system: cochlear Lgr5+ progenitor cells
Test: Expansion of Lgr5 cells in 3D culture, Lgr5-EGFP cells counted by flow cytometry
Format: cell-based, mice
Procedure: Neonatal Lgr5-EGFP-IRES-Cre-ER mice (The Jackson Laboratory, strain 8875) were used to analyze the effects of small molecules on cochlear stem cell expansion (see Barker et al., Nature 449, 1003-7 (2007). This strain allowed for visualization and quantification of EGFP cells.
All animal studies were conducted under an approved institutional protocol per National Institutes of Health guidelines. Using neonatal animals, cochleae were dissected and the organ of Corti (sensory epithelium) was separated from the stria vascularis (ion transport epithelium) and the modiolus (nerve tissue). Epithelia were then collected and treated with TrypLE for 15-20 minutes to obtain single cells. The cells were then filtered ([…]) and suspended in a Matrigel (Corning) dome for 3D culture seeded at 0.5 cochlea per well.
Expansion of Lgr5 Cells: Cells were cultured in a 3D system and bathed in a serum free 1:1 mixture of DMEM and F12, supplemented with Glutamax (GIBCO), N2, B27 (Invitrogen), EGF (50 ng/mL; Chemicon), bFGF (50 ng/mL; Chemicon), IGF-1 (50 ng/mL; Chemicon), and small molecules for seven days. Media was changed every other day. Treatments were run in triplicate or quadruplicate.
Quantification of Cell Proliferation: Lgr5 cells were quantified after 7-10 days. Cell colonies were dissociated into single cells using TrypLE. The cells were then stained with propidium iodide (PI) and analyzed using a flow cytometer to count Lgr5-EGFP cells. The percentage of viable Lgr5 cells was plotted against the concentration in GraphPad Prism.

For CCn1cc(C(=O)O)c(=O)c2c(N)c(F)c(NC3CCCCC3)cc21 [AS1842856], the “expansion of cochlear Lgr5+ progenitor cells in culture” value (AS1842856 425 nM, background of EFI) was “elicits the expansion”, the “enrichment of Lgr5 cells according to percentage” value (AS1842856 (425 nM) combined with VPA (1 mM), background of EFI) was “enriched according to percentage” and the “Lgr5-GFP colony formation (images of Lgr5+ cell culture)” value (EFI-AS1842856 alone) was “promotes Lgr5-GFP colony formation”. For the same molecule, the “Lgr5-GFP colony enrichment (less Lgr5-negative cells in culture)” value (EFI-AS1842856 with VPA added) was “enriched when VPA is added” and the “concentration dependence of Lgr5+ cell growth, enrichment and expansion of cochlear progenitor cells” value (background of EFI, range of concentrations) was “enhances expansion of cochlear progenitor cells concentration-dependent manner; also recorded: concentration-dependent effects”.
